# Values quoted from earlier work in patent publication US20020072734A1, “Chip systems for the controlled emission of substances having a chemosensory effect” (PHARMED HOLDING GMBH, priority 2000, published 2002).
# Where two headings read alike, the source gives them in different places.
# Experiments:
# regio olfactoria [1] = details: mice; applied to the regio olfactoria
# regio olfactoria [2] = details: rats; applied to the regio olfactoria
smiles,measurement,setting,value
CC[C@H](C)[C@@H]1NC(=O)[C@H](Cc2ccc(O)cc2)NC(=O)[C@@H](N)CSSC[C@@H](C(=O)N2CCC[C@H]2C(=O)N[C@@H](CC(C)C)C(=O)NCC(N)=O)NC(=O)[C@H](CC(N)=O)NC(=O)[C@H](CCC(N)=O)NC1=O [oxytocin],rapid effects in the central nervous system (anxiety),regio olfactoria [1],relieved anxiety
same,"rapid effects in the central nervous system (depression, aggression)",regio olfactoria [1],anti-depressive and anti-aggressive
same,rapid effects in the central nervous system (anxiety),regio olfactoria [2],relieved anxiety
same,"rapid effects in the central nervous system (depression, aggression)",regio olfactoria [2],anti-depressive and anti-aggressive
